Each structure is given as a SMILES string.

In test [1] the test system is human prostate cancer cell VCaP nude mouse transplanted tumor model. The test is described as follows: Prostate tumor pharmacodynamics experiment: VCaP nude mouse transplanted tumor model. It counts as in vivo, BALB/c nude mice. The settings on record: day 25, 0.5 mmol·kg−1 i.g. QD; for inhibition in vivo at 500 µmol/kg: Mus musculus, VCaP, po, 600 h, vs solvent control, read-out: Growth Inhibition rate (GI); for Tumor volume, day 25: n=6, * P<0.05, ** P<0.01 vs solvent control.
Protocol: Male BALB/c nude mice (number: 90; age: 6-7 weeks) purchased from Beijing Vital River Laboratory Animal Technology Co., Ltd., were raised in the SPF animal room of Suzhou Shengsu New Drug Development Co., Ltd. at a temperature of 20˜25° C. and a relative humidity 40%˜70%, and bright and dark illumination for 12 hours respectively; these mice were allowed to drink and eat freely. After normal feeding for about 6 days, mice with good physical signs can be selected for this experiment after veterinary inspection. Before grouping, animals were identified at their base of tail using marking pens. After grouping, each animal was identified by ear clipping.
Human prostate cancer cells VCaP were obtained from the Shanghai Cell Bank of the Chinese Academy of Sciences (CAS, cryopreserved in liquid nitrogen in our laboratory).
Under a culture condition of 5% CO2 and 37° C., VCaP cells were routinely cultured in DMEM medium containing 10% fetal bovine serum. Digested with 0.25% trypsin and passaged, VCaP cells were passaged 2-3 times per week based on cell growth, with a passage ratio of 1:3 to 1:5.
The VCaP cells in logarithmic growth phase were collected, counted, and resuspended in 50% DMEM basal medium and 50% Matrigel Matrix, and the cell concentration was adjust to 5×10^7 cells/mL; the cells was placed in an ice box; Cell suspension was aspirated with a 1 ml syringe, and injected subcutaneously to the anterior right armpit of nude mice. Each animal was inoculated with 200 μL (1×10^7 cells/mouse), and a VCaP transplant tumor model in nude mice was established. Regularly observe the status of mice, measure the diameter of the tumor with an electronic vernier caliper, input the data into Excel spreadsheets, calculate the tumor volume, and monitor its growth. When the tumor volume reached 100-300 mm3, 60 mice with good health and similar tumor volume were selected, and divided into 10 groups (n=6) based on the tumor volume using random block method, while ensuring that the average body weight of each group remained consistent as much as possible. The day of grouping was taken as the first day of the experiment (D1). The tumor diameters were measured twice a week after the initiation of the experiment, the tumor volumes were calculated, and the body weights of the animals were weighed and recorded at the same time.
Preparation of DMSO&PEG400&PG (v:v:v, 10:60:30): appropriate volumes of DMSO, PEG400 and PG were drawed respectively, and mixed well. The ratio of DMSO, PEG400 and PG in the mixture is 10:60:30 (v:v:v), and this mixture is used as a blank solvent and stored at room temperature.
Appropriate amount of the test compound was weighed and added into a glass bottle, appropriate volume of solvent DMSO was added, be treated with vortex ultrasonication, then appropriate volumes of PEG400 and PG were added in turn, be vortex mixed to obtain a dosing formulation with a final concentration of 0.05M. The dosing formulation was stored in refrigerator at 2-8° C. after subpackaging, and was stirred evenly with vortex before each administration. The dosing formulation was prepared every 7 days, and was subpackaged and stored in refrigerator at 4° C.
Appropriate amount of ZONK1901-10 was weighed and added into a glass bottle, appropriate volume of corn oil, was added, be treated with vortex ultrasonication evenly, a dosing formulation with a final concentration of 19.58 mg·mL-1 (0.05 M) was obtained.

The test system of test [2] is experimental rabbit ear acne. The test is described as follows: Pharmacodynamics evaluation of acne: coal tar rabbit ear acne model, HE pathology. Format: in vivo, Japanese big-ear white rabbits. The settings on record: 0.01% ointment, 1 g per animal, once a day, two weeks, 10 rabbits per group; for Degree of keratinization: number of rabbits graded + / Degree of keratinization: number of rabbits graded ++ / Degree of keratinization: number of rabbits graded +++ / Degree of keratinization: number of rabbits graded −: hair follicle keratinization. From the text: There are 140 male healthy Japanese big-ear white rabbits, weighing 2.0-2.5 kg. After one week of adaptive rearing, 10 rabbits were randomly selected according to their body weights as the normal control group, and the remaining 130 rabbits were coated with coal tar once a day in the area of 2×2 cm2 at 2 cm outside the opening of ear canal, with a thickness of about 0.5 mm (Before coating, the coal tar was heated to melt in a water bath, and the last coal tar shell was removed before each application; the rabbits in normal control group were coated with olive oil by the same method as before). After 3 weeks for modeling, according to the degree of skin lesion, 130 rabbits were randomly divided into 13 groups which is model control group, Example 1 compound (1 group), Example 2 compound (2 groups), Example 3 compound (3 groups), Example 4 (4 groups), Example 5 (5 groups), Example 6 (6 groups), Example 7 (7 groups), Example 8 (8 groups), Example 9 (9 groups), Example 10 (10 groups), Example 11 (11 groups), Example 12 (12 groups), Example 13 (13 groups), and each group had 10 rabbits. After grouping, each dose group were continued to be coated coal tar in the morning, and after the coal tar was removed in the afternoon, apply the test drug or control drug (both 0.01%/10 g ointment, apply 1 g ointment per animal) on the lesion, once a day, for two consecutive weeks (the model control group and the normal control group were coated with the same amount of matrix). 24 hours after the last administration, the animals were sacrificed by air embolism, and the skin (full thickness) of the ear where the administration was administered was taken, fixed with 4% paraformaldehyde solution, stained with HE, and routinely observed for pathology.1.

Regarding `CN(C)C(=O)ON=C1C=C2CC[C@H]3[C@H](CC[C@]4(C)C(c5cccnc5)=CC[C@@H]34)[C@@]2(C)CC1` [Example 2, (8S,9S,10R,13S,14S)-10,13-Dimethyl-17-(pyridin-3-yl) 6,7,8,9,10,11,12,13,14,15-decahydro-1H-cyclopenta[a]phenanthrene-3(2H)-one O-dimethylcarbamoyl oxime], in test [1], the inhibition in vivo at 500 µmol/kg was 81.4% and the “Tumor volume, day 25” value is 393 ± 25 ** mm3. Also, in test [2], the “degree of inflammatory cell infiltration: number of rabbits graded +” value stood at 4, the “degree of inflammatory cell infiltration: number of rabbits graded ++” value is listed as 4, the “degree of inflammatory cell infiltration: number of rabbits graded +++” value is 2 and the “degree of inflammatory cell infiltration: number of rabbits graded −” value stood at 0. Further, in test [2], the “Degree of keratinization: number of rabbits graded +” value is reported as 5, the “Degree of keratinization: number of rabbits graded ++” value stood at 5, the “Degree of keratinization: number of rabbits graded +++” value is reported as 0 and the “Degree of keratinization: number of rabbits graded −” value was 0.

For the compound `C[C@]12CCC(=NOC(=O)N3CCC(N4CCCCC4)CC3)C=C1CC[C@H]1[C@@H]2CC[C@]2(C)C(c3cccnc3)=CC[C@@H]12` [Example 4, (8S,9S,10R,13S,14S)-10,13-Dimethyl-17-(pyridin-3-yl) -6,7,8,9,10,11,12,13,14,15-decahydro-1H-cyclopentene[a]phenanthrenyl-3(2H)-one O-([1,4′-bipiperidine]-1′-carbonyl)oxime], in test [1], the inhibition in vivo at 500 µmol/kg is 84.2% and the “Tumor volume, day 25” value is 377 ± 37 ** mm3. Besides, in test [2], the “degree of inflammatory cell infiltration: number of rabbits graded +” value is 5, the “degree of inflammatory cell infiltration: number of rabbits graded ++” value was 3, the “degree of inflammatory cell infiltration: number of rabbits graded +++” value turned out to be 2 and the “degree of inflammatory cell infiltration: number of rabbits graded −” value came out at 0. In test [2], the “Degree of keratinization: number of rabbits graded +” value was found to be 7, the “Degree of keratinization: number of rabbits graded ++” value worked out at 3, the “Degree of keratinization: number of rabbits graded +++” value amounted to 0 and the “Degree of keratinization: number of rabbits graded −” value was found to be 1.

For `CC(C)C(=O)OCOC(=O)ON=C1C=C2CC[C@H]3[C@H](CC[C@]4(C)C(c5cccnc5)=CC[C@@H]34)[C@@]2(C)CC1` [Example 8, ((((((8S,9S,10R,13S,14S)-10,13-dimethyl-17-(pyridin-3-yl) -7,8,9,11,12,13,14,15-octahydro-1H-cyclopenta[a]phenanthrenyl-3(2H,6H,10H) -ylidene)amino)oxy)carbonyl)oxy)methyl isobutyrate], in test [2], the “degree of inflammatory cell infiltration: number of rabbits graded +” value turned out to be 4, the “degree of inflammatory cell infiltration: number of rabbits graded ++” value is recorded as 4, the “degree of inflammatory cell infiltration: number of rabbits graded +++” value is on record as 2 and the “degree of inflammatory cell infiltration: number of rabbits graded −” value worked out at 0. In test [2], the “Degree of keratinization: number of rabbits graded +” value turned out to be 5, the “Degree of keratinization: number of rabbits graded ++” value amounted to 5, the “Degree of keratinization: number of rabbits graded +++” value came to 0 and the “Degree of keratinization: number of rabbits graded −” value is on record as 0.

With `CCC(=O)O/N=C1/C=C2CC[C@H]3[C@H](CC[C@]4(C)C(c5cccnc5)=CC[C@@H]34)[C@@]2(C)CC1` [ZONK1901-19, reference compound], in test [1], the inhibition in vivo at 500 µmol/kg was found to be 38.7% and the “Tumor volume, day 25” value is listed as 790 ± 49 * mm3.

As for `C[C@]12CCC(=NOC(=O)OCCN3CCOCC3)C=C1CC[C@H]1[C@@H]2CC[C@]2(C)C(c3cccnc3)=CC[C@@H]12` [Example 9], in test [2], the “degree of inflammatory cell infiltration: number of rabbits graded +” value is listed as 5, the “degree of inflammatory cell infiltration: number of rabbits graded ++” value was found to be 4, the “degree of inflammatory cell infiltration: number of rabbits graded +++” value came to 1 and the “degree of inflammatory cell infiltration: number of rabbits graded −” value was 0. Further, in test [2], the “Degree of keratinization: number of rabbits graded +” value came to 6, the “Degree of keratinization: number of rabbits graded ++” value is listed as 4, the “Degree of keratinization: number of rabbits graded +++” value is given as 0 and the “Degree of keratinization: number of rabbits graded −” value was 0.

Take `C[C@]12CCC(=NOC(=O)C3CCNCC3)C=C1CC[C@H]1[C@@H]2CC[C@]2(C)C(c3cccnc3)=CC[C@@H]12` [Example 10, (8S,9S,10R,13S,14S)-10,13-Dimethyl-17-(pyridin-3-yl) -6,7,8,9,10,11,12,13,14,15-decahydro-1H-cyclopenta[a]phenanthrenyl-3(2H)-one O-piperidine-4-carbonyl oxime]: in test [2], the “degree of inflammatory cell infiltration: number of rabbits graded +” value came to 5, the “degree of inflammatory cell infiltration: number of rabbits graded ++” value was found to be 3, the “degree of inflammatory cell infiltration: number of rabbits graded +++” value was found to be 2 and the “degree of inflammatory cell infiltration: number of rabbits graded −” value worked out at 0. In addition, in test [2], the “Degree of keratinization: number of rabbits graded +” value is listed as 6, the “Degree of keratinization: number of rabbits graded ++” value is 3, the “Degree of keratinization: number of rabbits graded +++” value was 0 and the “Degree of keratinization: number of rabbits graded −” value turned out to be 1.

As to `CC(=O)ON=C1C=C2CC[C@H]3[C@H](CC[C@]4(C)C(c5cccnc5)=CC[C@@H]34)[C@@]2(C)CC1` [Example 7, (8S,9S,10R,13S,14S)-10,13-Dimethyl-17-(pyridin-3-yl) -6,7,8,9,10,11,12,13,14,15-decahydro-1H-cyclopenta[a]phenanthrenyl-3(2H)-one O-acetyloxime], in test [2], the “degree of inflammatory cell infiltration: number of rabbits graded +” value was 5, the “degree of inflammatory cell infiltration: number of rabbits graded ++” value turned out to be 3, the “degree of inflammatory cell infiltration: number of rabbits graded +++” value came to 2 and the “degree of inflammatory cell infiltration: number of rabbits graded −” value is 0. In test [2], the “Degree of keratinization: number of rabbits graded +” value is listed as 6, the “Degree of keratinization: number of rabbits graded ++” value is listed as 4, the “Degree of keratinization: number of rabbits graded +++” value worked out at 0 and the “Degree of keratinization: number of rabbits graded −” value is recorded as 0.

With `CN(C)CCN1CCC(C(=O)ON=C2C=C3CC[C@H]4[C@H](CC[C@]5(C)C(c6cccnc6)=CC[C@@H]45)[C@@]3(C)CC2)CC1` [Example 13, (8S,9S,10R,13S,14S)-10,13-Dimethyl-17-(pyridin-3-yl) -6,7,8,9,10,11,12,13,14,15-decahydro-1H-cyclopenta[a]phenanthrenyl-3(2H)-one O-(1-(2-(dimethylamino)ethyl)piperidine-4-carbonyl)oxime], in test [2], the “degree of inflammatory cell infiltration: number of rabbits graded +” value is 6, the “degree of inflammatory cell infiltration: number of rabbits graded ++” value came out at 3, the “degree of inflammatory cell infiltration: number of rabbits graded +++” value is recorded as 1 and the “degree of inflammatory cell infiltration: number of rabbits graded −” value turned out to be 0. Further, in test [2], the “Degree of keratinization: number of rabbits graded +” value is recorded as 4, the “Degree of keratinization: number of rabbits graded ++” value came out at 6, the “Degree of keratinization: number of rabbits graded +++” value was determined as 0 and the “Degree of keratinization: number of rabbits graded −” value turned out to be 0.

Regarding `CC(=O)N1CCC(C(=O)ON=C2C=C3CC[C@H]4[C@H](CC[C@]5(C)C(c6cccnc6)=CC[C@@H]45)[C@@]3(C)CC2)CC1` [Example 12, 1-(4-(((((8S,9S,10R,13S,14S)-10,13-dimethyl-17-(pyridin-3-yl) -7,8,9,11,12,13,14,15-octahydro-1H-cyclopenteno[a]phenanthrenyl-3(2H,6H, 10H) -ylidene)amino)oxy)carbonyl)piperidin-1-yl)ethanone], in test [2], the “degree of inflammatory cell infiltration: number of rabbits graded +” value is 5, the “degree of inflammatory cell infiltration: number of rabbits graded ++” value is listed as 4, the “degree of inflammatory cell infiltration: number of rabbits graded +++” value is recorded as 1 and the “degree of inflammatory cell infiltration: number of rabbits graded −” value is reported as 0. Further, in test [2], the “Degree of keratinization: number of rabbits graded +” value amounted to 5, the “Degree of keratinization: number of rabbits graded ++” value was found to be 5, the “Degree of keratinization: number of rabbits graded +++” value came out at 0 and the “Degree of keratinization: number of rabbits graded −” value was determined as 0.

`CN1CCC(C(=O)ON=C2C=C3CC[C@H]4[C@H](CC[C@]5(C)C(c6cccnc6)=CC[C@@H]45)[C@@]3(C)CC2)CC1` [Example 11, (8S,9S,10R,13S,14S)-10,13-Dimethyl-17-(pyridin-3-yl) -6,7,8,9,10,11,12,13,14,15-decahydro-1H-cyclopenta[a]phenanthrenyl-3(2H)-one O-(1-methylpiperidine-4-carbonyl)oxime]: in test [2], the “degree of inflammatory cell infiltration: number of rabbits graded +” value came to 6, the “degree of inflammatory cell infiltration: number of rabbits graded ++” value is reported as 3, the “degree of inflammatory cell infiltration: number of rabbits graded +++” value was found to be 1 and the “degree of inflammatory cell infiltration: number of rabbits graded −” value was 0. Moreover, in test [2], the “Degree of keratinization: number of rabbits graded +” value is listed as 7, the “Degree of keratinization: number of rabbits graded ++” value is 3, the “Degree of keratinization: number of rabbits graded +++” value was found to be 0 and the “Degree of keratinization: number of rabbits graded −” value is on record as 0.

For the compound `CC(=O)ON=C1C=C2CC[C@H]3[C@H](CC[C@]4(C)C(c5cccnc5)=CC[C@@H]34)[C@@]2(C)CC1` [H], the inhibition in vivo at 500 µmol/kg in test [1] is 69.3%.

The values are drawn from patent US20240208905A1, “ABIRATERONE DERIVATIVE, PREPARATION AND APPLICATION THEREOF” (GUANGDONG ZHONGKE MEDICINE R&D LTD., priority 2021, published 2024).
